Laboratory results: patent US5407683A (Research Corporation Technologies, Inc., priority 1992, dated 1995)
Values after ≈ are worked out from the molar mass of the structure shown.

Assays:
[1] = thermal stability of taxol; assay type: physicochemical; conditions: 130° C.
Method: The process steps can in many cases be performed at about room temperature. […] The process steps should be performed to avoid melting or decomposition of the matrix compound, i.e., the process should be performed at temperatures less than about the melting point or decomposition point of the matrix compound, generally about 140° C. or less. […] Thus preferred temperatures for performing the process steps are about 60° C. to about 130° C.

[2] = precipitation of taxol from oil solution under vacuum; assay type: physicochemical; conditions: bath temperatures less than 50° to 60° C.
[3] = solubilization of taxol in squalane oil; assay type: physicochemical; conditions: 4.0 mg taxol in 0.400 ml squalane oil, methanol removed
Method: The methanol was then removed with heating and nitrogen blanket at about 60° C. for 10 minutes.

leukemia = conditions: cited from earlier work
colon = conditions: cited from earlier work
breast = conditions: cited from earlier work
melanoma = conditions: cited from earlier work
sarcomas = conditions: cited from earlier work
Lewis lung tumor = conditions: cited from earlier work
microtubules = conditions: in vitro; cited from earlier work
[4] = cited from earlier work
[5] = nonemulsified form; cited from earlier work

CC(=O)O[C@H]1C(=O)[C@@]2(C)[C@H]([C@H](OC(=O)c3ccccc3)[C@]3(O)C[C@H](OC(=O)[C@H](O)[C@@H](NC(=O)c4ccccc4)c4ccccc4)C(C)=C1C3(C)C)[C@]1(OC(C)=O)CO[C@@H]1C[C@@H]2O [Taxol]
thermal stability [1]: stable for at least about two hours | precipitation from the oil solution [2]: tends to precipitate from the oil solution | solubilization of taxol in squalane oil [3]: completely solubilized | activity against leukemia (leukemia): active | activity against colon tumor system (colon): active | activity against breast tumor system (breast): active | activity against melanoma (melanoma): active | activity against sarcomas (sarcomas): active | activity against Lewis lung tumor system (Lewis lung tumor): active | concentrations that stabilize microtubules, thus disrupting normal cell division (microtubules): 0.1 to 10.0 µg/mL | solubility in vehicle ([4]; ethanol:cremophor EL:isotonic saline (5:5:90)): ≤ 600 µg/mL | solubility in most oils ([4]; safflower, olive and soybean oil): 300 to 600 µg/mL | solubility in soybean oil ([4]; soybean oil): 300 µg/mL (≈ 351 µM) | solubility in triacetin ([4]; triacetin): 30000 µg/mL (≈ 35100 µM) | degradation in the stomach [5]: degraded in the stomach
